According to patent publication US20260176250A1, “TRIAZINONE DERIVATIVES AS NLRP3 INHIBITORS” (Hoffmann-La Roche Inc., priority 2022, published 2026):

Experiments:
[1] = Metabolic stability in human hepatocytes; format: in vitro ADME
Description: Biological materials. Cryopreserved hepatocytes [mouse, rat, rabbit, monkey and human (male and female; mixed)] are obtained. Viability of hepatocytes after reconstitution is at least 80% throughout the study. Ready-to-use rat/human HepatoPac® cultures [long-term hepatocyte co-cultures; pooled (n=5 for male and n=5 for female for human)] with stromal mouse fibroblasts (negative control; pooled) with the plates for incubations, application medium and maintenance medium are acquired.
Metabolism by suspended hepatocytes. Primary pooled cryopreserved hepatocytes are reconstituted in pre-warmed William's E media containing 10% FCS, 0.05 mg/mL streptomycin and 50 U/mL penicillin and 0.4 mM L-glutamine; and 0.01 mg/mL gentamicin, 0.048 mg/mL hydrocortisone and 0.004 mg/mL insulin, to a final suspension density of 1×10^6 cells/mL. The incubation was performed fully automatically with Liquid Handling System (Tecan) equipped with a CO2 incubator with an orbital shaker. After the addition of a test compound at e.g. 1 μM to the wells (1×10^5 cells/well), the 96-well hepatocyte suspension culture plates are incubated in a 5% CO2 at 37° C. Samples are quenched by addition of acetonitrile (including an internal standard) to the incubation well at the designated time points up to 2 h.
Metabolism by HepatoPac®. […]
Samples are then centrifuged appropriately and the supernatant analyzed by LC-MS/MS. […]

NLRP3 [2] = biological target: T1, NLRP3 (Homo sapiens, UniProt Q96P20); test: Human whole blood IL-1β release assay; format: cell-based; parameters: Human whole blood in Li-heparin tubes was obtained from healthy donors; from tissue; host or cells: human whole blood from healthy donors; details: LPS 1 μg/ml, nigericin 10 μM, IL-1β AlphaLisa, read-out: Human whole blood IL-1ß Assay IC50
T1 sequence (Q96P20 whole entry): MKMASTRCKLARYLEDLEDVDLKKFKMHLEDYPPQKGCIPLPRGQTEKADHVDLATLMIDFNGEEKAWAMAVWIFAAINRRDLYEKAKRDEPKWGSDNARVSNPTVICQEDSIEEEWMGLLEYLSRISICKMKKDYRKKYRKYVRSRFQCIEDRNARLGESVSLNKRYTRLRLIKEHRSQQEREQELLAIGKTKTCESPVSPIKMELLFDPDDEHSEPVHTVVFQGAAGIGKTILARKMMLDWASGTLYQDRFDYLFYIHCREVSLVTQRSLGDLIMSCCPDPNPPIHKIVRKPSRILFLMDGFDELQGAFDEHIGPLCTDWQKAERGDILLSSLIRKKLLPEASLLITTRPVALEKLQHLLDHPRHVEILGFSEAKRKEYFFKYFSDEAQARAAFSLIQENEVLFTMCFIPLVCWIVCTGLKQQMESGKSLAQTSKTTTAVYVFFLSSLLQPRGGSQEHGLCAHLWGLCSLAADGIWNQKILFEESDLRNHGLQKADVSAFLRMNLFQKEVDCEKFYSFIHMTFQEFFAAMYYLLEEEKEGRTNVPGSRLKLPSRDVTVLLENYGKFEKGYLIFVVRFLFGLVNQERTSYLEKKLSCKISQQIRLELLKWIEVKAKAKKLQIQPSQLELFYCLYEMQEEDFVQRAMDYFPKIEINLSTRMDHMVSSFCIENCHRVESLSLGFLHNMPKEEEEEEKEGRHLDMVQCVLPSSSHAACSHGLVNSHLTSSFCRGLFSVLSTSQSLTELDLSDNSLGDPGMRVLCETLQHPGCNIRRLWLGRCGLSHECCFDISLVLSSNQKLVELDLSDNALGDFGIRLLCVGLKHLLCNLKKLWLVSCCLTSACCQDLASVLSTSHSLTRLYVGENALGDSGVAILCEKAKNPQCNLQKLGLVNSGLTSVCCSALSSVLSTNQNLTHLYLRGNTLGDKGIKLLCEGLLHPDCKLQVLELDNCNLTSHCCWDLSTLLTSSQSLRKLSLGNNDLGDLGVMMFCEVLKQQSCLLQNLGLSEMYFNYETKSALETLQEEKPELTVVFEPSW
Description: For systemic delivery, the ability to inhibit NLRP3 when the compounds are present within the bloodstream is of great importance. For this reason, the NLRP3 inhibitory activity of a number of compounds in human whole blood was investigated in accordance with the following protocol.
Human whole blood in Li-heparin tubes was obtained from healthy donors from a volunteer donor panel. • 1. Plate out 80 μl of whole blood containing 1 μg/ml of LPS in 96-well, clear bottom cell culture plate (Corning #3585) • 2. Add 10 μl compound (8 points half-log dilution with 10 μM top dose) or vehicle (DMSO 0.1% FAC) to the appropriate wells • 3. Incubate for 3 hours at 37° C., 5% CO2 • 4. Add 10 μl nigericin (Sigma #N7143) (10 μM FAC) to all wells • 5. Incubate for 1 hr at 37° C., 5% CO2 • 6. At the end of the incubation period, spin plates at 300xg for 5 mins to pellet cells and remove 20 μl of supernatant and add to 96-well v-bottom plates for IL-1β analysis (note: these plates containing the supernatants can be stored at −80° C. to be analysed at a later date) • 7. IL-1β was measured according to the manufacturer protocol (Perkin Elmer-AlphaLisa IL-1 Kit AL220F-5000) • 8. IC50 data is fitted to a non-linear regression equation (log inhibitor vs response-variable slope 4-parameters)

[3] = biological target: T2, hERG cardiac potassium channel (Homo sapiens, UniProt Q12809); test: hERG screening assay (automated patch clamp, CHO-hERG cells); format: cell-based; details: CHO crelox hERG cell line (CHO cells that express hERG), whole-cell patch clamp, 35-37° C.
T2 construct: host or cells: CHO crelox hERG cell line (Chinese hamster cells)
T2 sequence (Q12809 whole entry): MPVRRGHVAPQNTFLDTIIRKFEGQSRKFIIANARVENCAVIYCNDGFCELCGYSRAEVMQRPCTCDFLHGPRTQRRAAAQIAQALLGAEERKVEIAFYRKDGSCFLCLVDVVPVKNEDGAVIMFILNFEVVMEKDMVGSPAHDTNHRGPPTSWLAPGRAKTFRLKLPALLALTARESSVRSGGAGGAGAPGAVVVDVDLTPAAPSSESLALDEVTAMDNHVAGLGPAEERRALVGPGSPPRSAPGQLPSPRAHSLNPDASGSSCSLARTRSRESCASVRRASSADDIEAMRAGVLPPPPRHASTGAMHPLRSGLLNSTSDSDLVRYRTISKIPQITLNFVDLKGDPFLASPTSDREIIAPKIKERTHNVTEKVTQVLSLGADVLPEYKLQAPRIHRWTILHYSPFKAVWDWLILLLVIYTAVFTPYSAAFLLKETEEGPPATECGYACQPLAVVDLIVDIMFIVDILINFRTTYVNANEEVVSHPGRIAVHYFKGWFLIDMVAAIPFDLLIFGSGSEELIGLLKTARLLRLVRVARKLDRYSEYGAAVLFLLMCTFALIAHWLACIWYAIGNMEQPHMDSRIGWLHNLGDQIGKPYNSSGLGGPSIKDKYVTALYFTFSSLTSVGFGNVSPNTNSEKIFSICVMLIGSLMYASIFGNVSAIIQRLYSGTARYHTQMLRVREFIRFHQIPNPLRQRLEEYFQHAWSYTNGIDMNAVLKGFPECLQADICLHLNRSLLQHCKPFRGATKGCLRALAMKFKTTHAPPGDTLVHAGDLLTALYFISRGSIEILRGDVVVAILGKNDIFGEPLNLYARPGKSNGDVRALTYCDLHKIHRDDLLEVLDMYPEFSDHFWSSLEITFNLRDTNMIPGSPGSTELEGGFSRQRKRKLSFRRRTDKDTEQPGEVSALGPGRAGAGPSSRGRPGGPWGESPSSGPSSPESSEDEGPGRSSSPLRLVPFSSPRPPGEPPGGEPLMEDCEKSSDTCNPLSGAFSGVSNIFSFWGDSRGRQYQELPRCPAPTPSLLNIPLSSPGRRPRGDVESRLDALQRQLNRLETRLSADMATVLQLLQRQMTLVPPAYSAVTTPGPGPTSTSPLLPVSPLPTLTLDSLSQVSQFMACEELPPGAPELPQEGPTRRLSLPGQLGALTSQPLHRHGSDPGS
From the text: In the drug development process of small molecules, one of the most frequent adverse side effects, leading to the failure of drugs, is the cardiac arrhythmias. Such failure is often related to the capacity of the drug to inhibit the human ether-à-go-go-related gene (hERG) cardiac potassium channel. Having no or low inhibition of the hERG cardiac potassium channel is therefore considered as beneficial.
The CHO crelox hERG cell line (ATCC reference Nr. PTA-6812, female Chinese hamster cells) was generated and validated at Roche. Ready-to-use frozen instant CHO-hERG cells were cryopreserved at Evotec (Germany) and used directly in the experiments.
The extracellular solution contains (in mM): NaCl 150; KCl 4; CaCl2) 1; MgCl2 1; HEPES 10; pH 7.2-7.4 with NaOH, osmolarity 290-330 mOsm. […]
The effects of a compound on hERG K+-currents parameters will be evaluated at 2 concentrations in at least 4 cells.
The hERG test is performed using automated patch clamp system SynchroPatch® 384 (Nanion Technologies GmbH, Germany). K+ currents are measured with the patch-voltage-clamp technique in the whole-cell configuration at 35-37° C. […]
The amplitudes of IKhERG were recorded in each concentration of drug and they were compared to the vehicle control values (taken as 100%) to define fractional blocks. […]

NLRP3 [4] = biological target: T1, NLRP3; test: THP-1 cells pyroptosis assay; format: cell-based; details: LPS 1 μg/ml, nigericin 5 μM, resazurin readout
Description: THP-1 cells (ATCC #TIB-202) were grown in RPMI containing L-glutamine (Gibco #11835) supplemented with 1 mM sodium pyruvate (Sigma #S8636) and penicillin (100 units/ml)/streptomycin (0.1 mg/ml) (Sigma #P4333) in 10% Fetal Bovine Serum (FBS) (Sigma #F0804). The cells were routinely passaged and grown to confluency (˜10^6 cells/ml). On the day of the experiment, THP-1 cells were harvested and resuspended into RPMI medium (without FBS). The cells were then counted and viability (>90%) checked by Trypan blue (Sigma #T8154). Appropriate dilutions were made to give a concentration of 625,000 cells/ml. To this diluted cell solution was added LPS (Sigma #L4524) to give a 1 μg/ml Final Assay Concentration (FAC). 40 μl of the final preparation was aliquoted into each well of a 96-well plate. The plate thus prepared was used for compound screening.
The following method step-by-step assay was followed for compound screening. • 1. Seed THP-1 cells (25,000 cells/well) containing 1.0 μg/ml LPS in 40 μl of RPMI medium (without FBS) in 96-well, black walled, clear bottom cell culture plates coated with poly-D-lysine (VWR #734-0317) • 2. Add 5 μl compound (8 points half-log dilution, with 10 μM top dose) or vehicle (DMSO 0.1% FAC) to the appropriate wells • 3. Incubate for 3 hours at 37° C., 5% CO2 • 4. Add 5 μl nigericin (Sigma #N7143) (FAC 5 μM) to all wells • 5. Incubate for 1 hr at 37° C., 5% CO2 • 6. At the end of the incubation period, spin plates at 300xg for 3 mins and remove supernatant • 7. Then add 50 μl of resazurin (Sigma #R7017) (FAC 100 μM resazurin in RPMI medium without FBS) and incubate plates for a further 1-2 hours at 37° C. and 5% CO2 • 8. Plates were read in an Envision reader at Ex 560 nm and Em 590 nm • 9. IC50 data is fitted to a non-linear regression equation (log inhibitor vs response-variable slope 4-parameters)

Clint at 1 μM [1] [μl/min/10E6 cells] | IC50 (NLRP3 [2]) [nM] | IC50 (NLRP3 [4]) [nM] | Compound | IC20 [3] [nM]
<0.2 | 8 | 1.5 | CCN1CCC[C@@H](Nc2nnc(-c3ccc4c(c3O)CCC4)n(C)c2=O)C1 [Example 1, 6-[[(3R)-1-Ethyl-3-piperidyl]amino]-3-(4-hydroxyindan-5-yl)-4-methyl-1,2,4-triazin-5-one] | > 10000
– | 10 | 5.8 | CCN1CCC[C@@H](Nc2nnc(-c3ccc4c(c3O)CC4)n(C)c2=O)C1 [Example 2] | –
– | 26 | 13 | CCN1CCC[C@@H](N(C)c2nnc(-c3ccc4c(c3O)CCC4)n(C)c2=O)C1 [Example 3, 6-[[(3R)-1-Ethyl-3-piperidyl]-methyl-amino]-3-(4-hydroxyindan-5-yl)-4-methyl-1,2,4-triazin-5-one] | –
